Laboratory results taken from patent US6552089B1, “Method of treating or preventing alopecia” (priority 1992, dated 2003).
“And” between values parts separate entries of the source, which are not always exact repeats. Equal values may be shown once. Read-outs that look alike come from different tables or passages of the source.

Key:
[1] = tested on: arabinoside-C induced alopecia; assay: arabinoside-C induced alopecia in 8 day old rats, tellurate given i.p. (method of Hussein et al.); format: in vivo, Sprauge Dawley rats; conditions: for effect on alopecia of a tellurate regimen / No. of subjects with alopecia grade 0 (no detectable alopecia) / No. of subjects with alopecia grade 1+ (mild, hair loss <50%) / No. of subjects with alopecia grade 2+ (moderately severe, hair loss >50%) / No. of subjects with alopecia grade 3+ (total or virtually total, hair loss >79%): rats; for No. of subjects with alopecia grade 0 (no detectable alopecia) / No. of subjects with alopecia grade 1+ (mild, hair loss <50%) / No. of subjects with alopecia grade 2+ (moderately severe, hair loss >50%) / No. of subjects with alopecia grade 3+ (total or virtually total, hair loss >79%): day 9
Protocol: 28, 1990, pp. 1564-1566. […] The cycle of treatment lasted 7 days. […] A second experiment was carried out using the same procedure which is outlined above.

[2] = tested on: arabinoside-C induced alopecia; assay: topical application in glycerin to back of arabinoside-C injected rats; format: in vivo; design: key to Grade of Alopecia: 0 = no alopecia; 1 = less than 20% alopecia; 2 = less than 50% alopecia; 3 = more than 50% alopecia; 4 = total alopecia; conditions: for Grade of Alopecia: arabinoside-C 25 mg/kg 2 h after each treatment
Protocol: A stock composition of 1 mg. of ammonium trichloro (O,O′-dioxoethylene) tellurate in 1 ml. of glycerin was prepared. The stock composition was diluted with glycerin to give the following concentrations per ml. so that the stated dose could be applied topically by application of 1 ml. of solution. The solution was applied to the entire back surface of rats once daily for a period of 7 days. Two hours after each treatment the rats were injected with 25 mg/kg of arabinoside-C once daily. Control rats were treated with a glycerin and injected with arabinoside-C.

[3] = tested on: alopecia under carboplatinum/etoposide chemotherapy; assay: phase II chemotherapy trial, alopecia score; format: in vivo, patients; conditions: Group II: tellurate 3 mg/m^2 three times a week plus carboplatinum/etoposide chemotherapy; 12 weeks after chemotherapy
Protocol: A phase II chemotherapy trial was carried out in patients having unresectable and metastatic non-small cell lung tumors. The chemotherapy was based on carboplatinum 300.0 mg/m^2/IV daily and etoposide 200.0 mg/m^2 on day 3, 5 and 7 for a total of 12 weeks of chemotherapy which was given to group I. In addition to the same chemotherapy, ammonium trichloro (O,O′-dioxoethylene)tellurate was given to Group II at a dose of 3 mg/m^2 three times a week starting two weeks before the chemotherapy and continued for 12 weeks after the chemotherapy. The alopecia of both groups was observed 12 weeks after the chemotherapy and was as follows: […]

[4] = tested on: alopecia which is induced by cyclophosphamide; conditions: rats
[5] = tellurate 0.5 mg/Kg IP daily ×7 days with arabinoside-C 25 mg/kg i.p., first experiment
[6] = tellurate 0.5 mg/Kg IP daily ×7 days with arabinoside-C 50 mg/kg i.p., first experiment
[7] = tellurate 0.5 mg/Kg IP every other day ×7 days with arabinoside-C 25 mg/kg i.p., first experiment
[8] = tellurate 0.5 mg/Kg IP every other day ×7 days with arabinoside-C 50 mg/kg i.p., first experiment
[9] = tellurate 0.5 mg/Kg IP every other day ×7 days with arabinoside-C 50 mg/kg i.p., second experiment
[10] = tellurate 0.5 mg/Kg IP daily ×7 days with cyclophosphamide 20 mg/kg i.p. ×7 days, listed as ammonium trichloro (0,0′-dioxoethylene) tellurate
[11] = arabinoside-C 25 mg/kg daily ×7 days alone, first experiment
[12] = arabinoside-C 50 mg/kg i.p. ×7 days alone, first experiment
[13] = cyclophosphamide 20 mg/kg i.p. ×7 days alone

SMILES: Cl[TeH]1(Cl)(Cl)OCCO1.N [ammonium-trichloro (O,O′-dioxoethylene) tellurate]
- effect on alopecia of a tellurate regimen ([1]; given daily): almost completely avoids alopecia
- effect on alopecia of a tellurate regimen ([1]; given every other day): provides some protection from alopecia
- histological examination of the skin ([1]; subjects treated with arabinoside-C and tellurate): no hair loss or reduced hair loss
- No. of subjects with alopecia grade 0 (no detectable alopecia) [1, 5]: 0
- No. of subjects with alopecia grade 1+ (mild, hair loss <50%) [1, 5]: 4
- No. of subjects with alopecia grade 2+ (moderately severe, hair loss >50%) [1, 5]: 0
- No. of subjects with alopecia grade 3+ (total or virtually total, hair loss >79%) [1, 5]: 0
- No. of subjects with alopecia grade 0 (no detectable alopecia) ([1]; tellurate 0.5 mg/Kg IP daily ×7 days with arabinoside-C 25 mg/kg i.p., second experiment): 6
- No. of subjects with alopecia grade 0 (no detectable alopecia) [1, 6]: 0
- No. of subjects with alopecia grade 1+ (mild, hair loss <50%) [1, 6]: 3
- No. of subjects with alopecia grade 2+ (moderately severe, hair loss >50%) [1, 6]: 1
- No. of subjects with alopecia grade 3+ (total or virtually total, hair loss >79%) [1, 6]: 0
- No. of subjects with alopecia grade 0 (no detectable alopecia) ([1]; tellurate 0.5 mg/Kg IP daily ×7 days with arabinoside-C 50 mg/kg i.p., second experiment): 6
- No. of subjects with alopecia grade 0 (no detectable alopecia) [1, 7]: 0
- No. of subjects with alopecia grade 1+ (mild, hair loss <50%) [1, 7]: 4
- No. of subjects with alopecia grade 2+ (moderately severe, hair loss >50%) [1, 7]: 0
- No. of subjects with alopecia grade 3+ (total or virtually total, hair loss >79%) [1, 7]: 0
- No. of subjects with alopecia grade 0 (no detectable alopecia) ([1]; tellurate 0.5 mg/Kg IP every other day ×7 days with arabinoside-C 25 mg/kg i.p., second experiment): 6
- No. of subjects with alopecia grade 0 (no detectable alopecia) [1, 8]: 0
- No. of subjects with alopecia grade 1+ (mild, hair loss <50%) [1, 8]: 1
- No. of subjects with alopecia grade 2+ (moderately severe, hair loss >50%) [1, 8]: 3
- No. of subjects with alopecia grade 3+ (total or virtually total, hair loss >79%) [1, 8]: 0
- No. of subjects with alopecia grade 1+ (mild, hair loss <50%) [1, 9]: 1
- No. of subjects with alopecia grade 2+ (moderately severe, hair loss >50%) [1, 9]: 2
- No. of subjects with alopecia grade 3+ (total or virtually total, hair loss >79%) [1, 9]: 3
- Grade of Alopecia ([2]; 10 ug/rat topical in glycerin once daily 7 days): 3 (3 = more than 50% alopecia)
- Grade of Alopecia ([2]; 20 ug/rat topical in glycerin once daily 7 days): 1 (1 = less than 20% alopecia)
- rats that showed 0% alopecia ([2]; 50 ug topical, arabinoside-C 25 mg/kg): 100%
- Grade of Alopecia ([2]; 50 ug/rat topical in glycerin once daily 7 days): 0
- Grade of Alopecia ([2]; 100 ug/rat topical in glycerin once daily 7 days): 2 (2 = less than 50% alopecia)
- Grade of Alopecia ([2]; 200 ug/rat topical in glycerin once daily 7 days): 3 (3 = more than 50% alopecia)
- dose response of topical effect on alopecia ([2]; 10-200 ug/rat topical, arabinoside-C 25 mg/kg): A dose response effect was observed
- number with alopecia score 0 [3]: 122
- number with alopecia score I (casual alopecia) [3]: 26
- number with alopecia score II (>50% alopecia) [3]: 40
- number with alopecia score III (<50% alopecia) [3]: 12
- number with alopecia score IV (total alopecia) [3]: 0
- percentage with alopecia score 0 [3]: 61.00%
- percentage with alopecia score I (casual alopecia) [3]: 13.00%
- percentage with alopecia score II (>50% alopecia) [3]: 20.00%
- percentage with alopecia score III (<50% alopecia) [3]: 6.00%
- percentage with alopecia score IV (total alopecia) [3]: 0.00%
- protection against cyclophosphamide induced alopecia ([4]; 0.5 mg/kg/i.p. in conjunction with cyclophosphamide): mild protection
- No. of subjects with alopecia grade 1+ (mild, hair loss <50%) ([4]; tellurate 0.5 mg/Kg IP daily ×7 days with cyclophosphamide 20 mg/kg i.p. ×7 days): 4
- No. of subjects with alopecia grade 0 (no detectable alopecia) [4, 10]: 2
- No. of subjects with alopecia grade 1+ (mild, hair loss <50%) [4, 10]: 2
- No. of subjects with alopecia grade 2+ (moderately severe, hair loss >50%) [4, 10]: 1

SMILES: Nc1ccn([C@@H]2O[C@H](CO)[C@@H](O)[C@@H]2O)c(=O)n1 [arabinoside-C, reference compound]
- No. of subjects with alopecia grade 0 (no detectable alopecia) [1, 11]: 0
- No. of subjects with alopecia grade 1+ (mild, hair loss <50%) [1, 11]: 0
- No. of subjects with alopecia grade 2+ (moderately severe, hair loss >50%) [1, 11]: 0
- No. of subjects with alopecia grade 3+ (total or virtually total, hair loss >79%) [1, 11]: 3
- No. of subjects with alopecia grade 3+ (total or virtually total, hair loss >79%) ([1]; arabinoside-C 25 mg/kg i.p. ×7 days alone, second experiment): 8
- No. of subjects with alopecia grade 0 (no detectable alopecia) [1, 12]: 0
- No. of subjects with alopecia grade 1+ (mild, hair loss <50%) [1, 12]: 0
- No. of subjects with alopecia grade 2+ (moderately severe, hair loss >50%) [1, 12]: 0
- No. of subjects with alopecia grade 3+ (total or virtually total, hair loss >79%) [1, 12]: 4
- No. of subjects with alopecia grade 3+ (total or virtually total, hair loss >79%) ([1]; arabinoside-C 50 mg/kg i.p. ×7 days alone, second experiment): 8
- histological examination of the skin ([1]; arabinoside-C treated subjects): almost complete loss of hair follicles
- alopecia ([2]; all control animals: glycerin topical, arabinoside-C 25 mg/kg once daily): 100%

SMILES: O=P1(N(CCCl)CCCl)NCCCO1 (centres unmarked) [cyclophosphamide, reference compound]
- No. of subjects with alopecia grade 0 (no detectable alopecia) [4, 13]: 1
- No. of subjects with alopecia grade 1+ (mild, hair loss <50%) [4, 13]: 3 and 2
- No. of subjects with alopecia grade 1+ (mild, hair loss <50%) ([4]; cyclophosphamide 20 mg/kg i.p. ×7 days alone, listed as cyclosphosphamide): 10
